For 13 compounds, TGI results are on record in PubChem BioAssay (NCI).

Test systems include MALME-3M melanoma; SNB-19 CNS; MDA-N; OVCAR-3 ovarian; BT-549 breast; A498 renal; COLO 205 colon; CAKI-1 renal; RPMI-8226 leukemia; SNB-75 CNS; U251 CNS; HL-60(TB) leukemia.
What all share (test): inhibition of tumour cell growth, NCI panel, 48 h

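Tested at 5 concentrations; 48 h exposure; 96-well plates; endpoints linearly interpolated, else capped at highest concentration. Definition used: TGI = concentration required for complete inhibition of growth.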 A value given as a limit tells only on which side of the number the result lay.

Take `COc1ccc(-c2oc3cc(-c4cc5oc(-c6ccc(OC)cc6)c(-c6ccc(OC)cc6)c5cc4OC)c(OC)cc3c2-c2ccc(OC)cc2)cc1`: the TGI in the assay on MALME-3M melanoma, in the assay on SNB-19 CNS, in the assay on MDA-N, in the assay with OVCAR-3 ovarian, with BT-549 breast and in the assay on A498 renal was over 100 µM throughout. In addition, the TGI in the assay with COLO 205 colon, with CAKI-1 renal, with RPMI-8226 leukemia, in the assay on SNB-75 CNS and in the assay with U251 CNS was over 100 µM in each case.

With `CC(N)(CC(O)(C(F)(F)Cl)C(F)(F)Cl)C(=O)O` (centres undefined), the TGI with MALME-3M melanoma, in the assay with SNB-19 CNS, in the assay with MDA-N, in the assay with OVCAR-3 ovarian, in the assay on BT-549 breast and in the assay with A498 renal was over 10 µM in each case. The TGI in the assay with COLO 205 colon, with CAKI-1 renal, in the assay on SNB-75 CNS and in the assay on U251 CNS was over 10 µM in each case.

As to `CN=c1sc2c(n1C)C(=O)c1ccccc1C2=O`, the TGI in the assay on MALME-3M melanoma is 1.14 µM; with SNB-19 CNS it was 10.1 µM; with MDA-N it was 0.467 µM; in the assay with OVCAR-3 ovarian, 11.3 µM; in the assay on BT-549 breast, 3.58 µM; with A498 renal, 30.1 µM. The TGI in the assay with COLO 205 colon was 11.9 µM; with CAKI-1 renal it was 15.5 µM; with RPMI-8226 leukemia, 24.6 µM; with SNB-75 CNS, 4.33 µM; with U251 CNS, 10.5 µM.

Take `Clc1ccc(C=Nc2ccc(Oc3ccc(Cl)cc3)c(Cl)c2)cc1`: the TGI with MALME-3M melanoma turned out to be 49.2 µM; in the assay on SNB-19 CNS, 56.2 µM; in the assay with MDA-N, 38.8 µM; in the assay with OVCAR-3 ovarian it was 40.4 µM; in the assay on BT-549 breast, 53.3 µM; in the assay with HL-60(TB) leukemia, 63.8 µM. For the same compound, the TGI in the assay on COLO 205 colon is 36.5 µM; with CAKI-1 renal, 86.2 µM; with RPMI-8226 leukemia, over 100 µM; in the assay on SNB-75 CNS it was 52.6 µM; with U251 CNS, 60.5 µM.

Turning to `COc1ccc(CCCCNCc2cccc(CNCCCCc3ccc(OC)cc3)c2)cc1`, the TGI in the assay with MALME-3M melanoma is 3.6 µM; in the assay with SNB-19 CNS, 3.29 µM; in the assay with MDA-N, 4.25 µM; in the assay on OVCAR-3 ovarian, 3.37 µM; in the assay on BT-549 breast, 3.36 µM; in the assay on HL-60(TB) leukemia it was 3.98 µM. Also, the TGI with COLO 205 colon is 5.22 µM; in the assay with CAKI-1 renal it was 3.63 µM; in the assay with RPMI-8226 leukemia, over 100 µM; with SNB-75 CNS it was 3.38 µM; in the assay with U251 CNS, 3.71 µM.

Consider `COC(=O)/C=C/c1ccc(OP(=O)(O)O)c(OC)c1`, for which the TGI in the assay with MALME-3M melanoma, in the assay with SNB-19 CNS, in the assay on MDA-N, with OVCAR-3 ovarian, in the assay on BT-549 breast and with A498 renal was over 100 µM in each case. Also, the TGI in the assay with COLO 205 colon, in the assay on CAKI-1 renal, with RPMI-8226 leukemia, in the assay with SNB-75 CNS and in the assay on U251 CNS was over 100 µM each time.

Turning to `COC(=O)C1CCC(=O)N1CN(C(C)=O)c1cccc(O)c1` (centres undefined), the TGI in the assay on MALME-3M melanoma, in the assay on SNB-19 CNS, in the assay on MDA-N, in the assay on OVCAR-3 ovarian, in the assay on A498 renal and with HL-60(TB) leukemia was over 100 µM in each case. In addition, the TGI with COLO 205 colon, in the assay with CAKI-1 renal, with RPMI-8226 leukemia, with SNB-75 CNS and with U251 CNS was over 100 µM each time.

As for `N#Cc1sc2nc3ccccc3n2c1N`, the TGI with MALME-3M melanoma, in the assay on SNB-19 CNS, in the assay with MDA-N, in the assay with OVCAR-3 ovarian, in the assay with BT-549 breast and in the assay with A498 renal was over 100 µM throughout. The TGI in the assay on COLO 205 colon, in the assay on CAKI-1 renal, in the assay on RPMI-8226 leukemia, in the assay on SNB-75 CNS and with U251 CNS was over 100 µM throughout.

On to `Cc1[nH]n(-c2nc3c(c(=O)[nH]2)CCCC3)c(=O)c1CCO`, for which the TGI in the assay with MALME-3M melanoma, with SNB-19 CNS, in the assay on MDA-N, in the assay with OVCAR-3 ovarian, with A498 renal and in the assay with HL-60(TB) leukemia was over 100 µM each time. Besides, the TGI with COLO 205 colon, in the assay with CAKI-1 renal and in the assay with U251 CNS was over 100 µM throughout.

Consider `O=[N+]([O-])c1ccc(/C=N/Nc2nc3ccccc3[nH]2)o1`, for which the TGI is 30.7 µM in the assay with MALME-3M melanoma; over 100 µM with SNB-19 CNS; 31.7 µM in the assay on MDA-N; 28.1 µM in the assay with OVCAR-3 ovarian; 31.1 µM in the assay with BT-549 breast; 11.4 µM in the assay with HL-60(TB) leukemia. The TGI with COLO 205 colon worked out at 23 µM; with CAKI-1 renal, 28.7 µM; in the assay on RPMI-8226 leukemia it was 15.3 µM; in the assay with SNB-75 CNS, 36.4 µM; in the assay on U251 CNS, 92.8 µM.

For the compound `CCN1/C(=C/C#C/C(C)=C\c2sc3ccc(Cl)cc3[n+]2CC)Sc2ccc(Cl)cc21`, the TGI in the assay on MALME-3M melanoma stood at 6.84 µM; in the assay with SNB-19 CNS, 18.9 µM; with MDA-N, 12.9 µM; in the assay with BT-549 breast, 6 µM; with COLO 205 colon it was 3.21 µM; in the assay with CAKI-1 renal, 7.13 µM. For the same compound, the TGI with SNB-75 CNS came out at 9.98 µM; with U251 CNS it was 23.2 µM.

Consider `Cc1ccc(S(=O)(=O)N(CC(O)COc2ccccc2)c2c(F)cccc2F)cc1` (centres undefined), for which the TGI in the assay with MALME-3M melanoma is 52.4 µM; in the assay with SNB-19 CNS it was over 100 µM; in the assay with MDA-N, 31.4 µM; in the assay on OVCAR-3 ovarian it was 30.3 µM; in the assay with A498 renal, 38.8 µM; with HL-60(TB) leukemia it was 93.1 µM. The TGI in the assay with COLO 205 colon stood at 27.9 µM; in the assay on CAKI-1 renal, 33.8 µM; in the assay with RPMI-8226 leukemia, 34 µM; in the assay on SNB-75 CNS it was 49 µM; in the assay with U251 CNS, 29.1 µM.

For `O=C(O)CCCc1ccc2c(c1)CC1(C2)Cc2cc3c(cc2C1)CCCC3`, the TGI in the assay with MALME-3M melanoma was determined as 41.5 µM; in the assay on MDA-N, 39.9 µM; with OVCAR-3 ovarian, 35.2 µM; with A498 renal it was 35.3 µM; in the assay with HL-60(TB) leukemia it was 28.2 µM; with COLO 205 colon, 38.2 µM. In addition, the figures for the TGI in the assay on RPMI-8226 leukemia and in the assay with U251 CNS were 53.2 µM and 32.9 µM, respectively.
